According to US7138361B2, “Herbicidal heterocycles” (E. I. du Pont de Nemours and Company, priority 2000, dated 2006):

Key:
Format in all cases: in vivo
[1] = tested on: wheat (Triticum aestivum); assay: Test B postemergence; conditions: 13 to 15 days
Description: (§1) Seeds selected from barnyardgrass (Echinochloa crus-galli), Surinam grass (Brachiaria decumbens), cocklebur (Xanthium strumarium), corn (Zea mays), crabgrass (Digitaria sanguinalis), giant foxtail (Setaria faberii), lambsquarters (Chenopodium album), morning glory (Ipomoea hederacea), pigweed (Amaranthus retroflexus), rice (Oryza saliva) and velvetleaf (Abutilon theophrasti) were planted and treated preemergence with test chemicals formulated in a non-phytotoxic solvent mixture which included a surfactant.
(§2) At the same time, plants selected from these crop and weed species and also blackgrass (Alopecurus myosuroides), wheat (Triticum aestivum) and wild oat (Avena fatua) were treated with postemergence applications of test chemicals formulated in the same manner. Plants ranged in height from 2 to 18 cm (1- to 4-leaf stage) for postemergence treatments. Plant species in the flooded paddy test consisted of rice (Oryza saliva), smallflower flatsedge (Cyperus difformis), duck salad (Heteranthera limosa) and barnyardgrass (Echinochloa crus-galli) grown to the 2-leaf stage for testing. Treated plants and controls were maintained in a greenhouse for 13 to 15 days, after which time all species were compared to controls and visually evaluated. Plant response ratings, summarized in Table B, are based on a scale of 0 to 100 where 0 is no effect and 100 is complete control. A dash (-) response means no test result.

[2] = tested on: lambsquarters (Chenopodium album); assay: Test B postemergence; conditions: 13 to 15 days
Description: as §1, §2

[3] = tested on: barnyardgrass (Echinochloa crus-galli); assay: Test B postemergence; conditions: 13 to 15 days
Description: as §1, §2

[4] = tested on: cocklebur (Xanthium strumarium); assay: Test B postemergence; conditions: 13 to 15 days
Description: as §1, §2

[5] = tested on: blackgrass (Alopecurus myosuroides); assay: Test B postemergence; conditions: 13 to 15 days
Description: as §1, §2

[6] = tested on: pigweed (Amaranthus retroflexus); assay: Test B postemergence; conditions: 13 to 15 days
Description: as §1, §2

[7] = tested on: Surinam grass (Brachiaria decumbens); assay: Test B postemergence; conditions: 13 to 15 days
Description: as §1, §2

[8] = tested on: giant foxtail (Setaria faberii); assay: Test B postemergence; conditions: 13 to 15 days
Description: as §1, §2

wild oat (Avena fatua) = assay: Test B postemergence; conditions: 13 to 15 days
Description: as §1, §2

[9] = tested on: crabgrass (Digitaria sanguinalis); assay: Test B postemergence; conditions: 13 to 15 days
Description: as §1, §2

[10] = tested on: velvetleaf (Abutilon theophrasti); assay: Test B postemergence; conditions: 13 to 15 days
Description: as §1, §2

[11] = tested on: morning glory (Ipomoea hederacea); assay: Test B postemergence; conditions: 13 to 15 days
Description: as §1, §2

corn (Zea mays) [12] = assay: Test B postemergence; conditions: 13 to 15 days
Description: as §1, §2

[13] = tested on: duck salad (Heteranthera limosa); assay: Test C flooded paddy test; conditions: for Ducksalad plant response rating: Flooded Paddy, scale 0 to 100, 0 no effect, 100 complete control; for Plant response rating, Ducksalad: flooded paddy test, scale 0 to 100 (0 no effect, 100 complete control)
Description: (§3) At the same time, plants selected from these crop and weed species and also winter barley (Hordeum vulgare), blackgrass (Alopecurus myosuroides), canary grass (Phalaris minor), chickweed (Stellaria media), downy brome (Bromus tectorum), green foxtail (Setaria viridis), Italian ryegrass (Lolium multiflorum), wheat (Triticum aestivum), wild oat (Avena fatua) and windgrass (Apera spica-venti) were treated with postemergence applications of some of the test chemicals formulated in the same manner. Plants ranged in height from 2 to 18 cm (1- to 4-leaf stage) for postemergence treatments. Plant species in the flooded paddy test consisted of rice (Oryza saliva), smallflower flatsedge (Cyperus difformis), duck salad (Heteranthera limosa) and barnyardgrass (Echinochloa crus-galli) grown to the 2-leaf stage for testing. Treated plants and controls were maintained in a greenhouse for 12 to 14 days, after which time all species were compared to controls and visually evaluated. Plant response ratings, summarized in Table C, are based on a scale of 0 to 100 where 0 is no effect and 100 is complete control. A dash (-) response means no test result.

[14] = tested on: barnyardgrass (Echinochloa crus-galli); assay: Test C flooded paddy test; conditions: for Barnyardgrass plant response rating: Flooded Paddy, scale 0 to 100, 0 no effect, 100 complete control; for Plant response rating, Barnyardgrass: flooded paddy test, scale 0 to 100 (0 no effect, 100 complete control)
Description: as §3

[15] = tested on: smallflower flatsedge (Cyperus difformis); assay: Test C flooded paddy test; conditions: for Flatsedge plant response rating: Flooded Paddy, scale 0 to 100, 0 no effect, 100 complete control; for Plant response rating, Flatsedge: flooded paddy test, scale 0 to 100 (0 no effect, 100 complete control)
Description: as §3

rice (Oryza saliva) [16] = assay: Test C flooded paddy test; conditions: for Rice plant response rating: Flooded Paddy, scale 0 to 100, 0 no effect, 100 complete control; for Plant response rating, Rice: flooded paddy test, scale 0 to 100 (0 no effect, 100 complete control)
Description: as §3

[17] = tested on: lambsquarters (Chenopodium album); assay: Test B preemergence
Description: as §1, §2

[18] = tested on: barnyardgrass (Echinochloa crus-galli); assay: Test B preemergence
Description: as §1, §2

[19] = tested on: cocklebur (Xanthium strumarium); assay: Test B preemergence
Description: as §1, §2

[20] = tested on: pigweed (Amaranthus retroflexus); assay: Test B preemergence
Description: as §1, §2

[21] = tested on: Surinam grass (Brachiaria decumbens); assay: Test B preemergence
Description: as §1, §2

[22] = tested on: giant foxtail (Setaria faberii); assay: Test B preemergence
Description: as §1, §2

[23] = tested on: crabgrass (Digitaria sanguinalis); assay: Test B preemergence
Description: as §1, §2

[24] = tested on: velvetleaf (Abutilon theophrasti); assay: Test B preemergence
Description: as §1, §2

rice (Oryza saliva) [25] = assay: Test B preemergence
Description: as §1, §2

[26] = tested on: morning glory (Ipomoea hederacea); assay: Test B preemergence
Description: as §1, §2

corn (Zea mays) [27] = assay: Test B preemergence
Description: as §1, §2

[28] = Rate 125 g/ha, scale 0 (no effect) to 100 (complete control)
[29] = Rate 500 g/ha, scale 0 to 100, 0 is no effect, 100 is complete control
[30] = Preemergence, Rate 500 g/ha, scale 0 to 100, 0 no effect, 100 complete control
[31] = preemergence, Rate 125 g/ha, scale of 0 to 100 where 0 is no effect and 100 is complete control, 13 to 15 days

Cc1c(F)cc(N2CCC(n3ccc(C(C)(C)C)n3)C2=O)cc1Br (stereo not shown) [Compound 78]
10: Plant response rating, Lambsquarters [2, 29] | Plant response rating, Foxtail, Giant [22, 30]
100: Plant response rating, Lambsquarters [17, 30] | Plant response rating, Lambsquarters [17, 31] | Plant response rating, Pigweed [20, 30]
70: Plant response rating, Pigweed [6, 28]
80: Plant response rating, Pigweed [6, 29] | Plant response rating, Pigweed [20, 31]
30: Plant response rating, Crabgrass [23, 30]
20: Plant response rating, Cocklebur [4, 29]
90: Flatsedge plant response rating ([15]; Rate 500 g/ha) | Plant response rating, Barnyardgrass [18, 30]
0: Plant response rating, Wheat [1, 28] | Plant response rating, Wheat [1, 29] | Plant response rating, Lambsquarters [2, 28] | Plant response rating, Barnyardgrass [3, 28] | Plant response rating, Barnyardgrass [3, 29] | Plant response rating, Cocklebur [4, 28] | Plant response rating, Blackgrass [5, 28] | Plant response rating, Blackgrass [5, 29] | Plant response rating, Surinam grass [7, 28] | Plant response rating, Surinam grass [7, 29] | Plant response rating, Foxtail, Giant [8, 28] | Plant response rating, Foxtail, Giant [8, 29] | Plant response rating, Wild Oat (wild oat (Avena fatua); [28]) | Plant response rating, Wild Oat (wild oat (Avena fatua); [29]) | Plant response rating, Crabgrass [9, 28] | Plant response rating, Crabgrass [9, 29] | Plant response rating, Velvetleaf [10, 28] | Plant response rating, Velvetleaf [10, 29] | Plant response rating, Morningglory [11, 28] | Plant response rating, Morningglory [11, 29] | Plant response rating, Corn (corn (Zea mays) [12]; [28]) | Plant response rating, Corn (corn (Zea mays) [12]; [29]) | Ducksalad plant response rating ([13]; Rate 250 g/ha) | Ducksalad plant response rating ([13]; Rate 500 g/ha) | Plant response rating, Ducksalad ([13]; Rate 62 g/ha) | Plant response rating, Ducksalad ([13]; Rate 125 g/ha) | Barnyardgrass plant response rating ([14]; Rate 250 g/ha) | Plant response rating, Barnyardgrass ([14]; Rate 62 g/ha) | Plant response rating, Barnyardgrass ([14]; Rate 125 g/ha) | Flatsedge plant response rating ([15]; Rate 250 g/ha) | Plant response rating, Flatsedge ([15]; Rate 62 g/ha) | Plant response rating, Flatsedge ([15]; Rate 125 g/ha) | Rice plant response rating (rice (Oryza saliva) [16]; Rate 250 g/ha) | Rice plant response rating (rice (Oryza saliva) [16]; Rate 500 g/ha) | Plant response rating, Rice (rice (Oryza saliva) [16]; Rate 62 g/ha) | Plant response rating, Rice (rice (Oryza saliva) [16]; Rate 125 g/ha) | Plant response rating, Barnyardgrass [18, 31] | Plant response rating, Cocklebur [19, 30] | Plant response rating, Cocklebur [19, 31] | Plant response rating, Surinam grass [21, 30] | Plant response rating, Surinam grass [21, 31] | Plant response rating, Foxtail, Giant [22, 31] | Plant response rating, Crabgrass [23, 31] | Plant response rating, Velvetleaf [24, 30] | Plant response rating, Velvetleaf [24, 31] | Plant response rating, Rice (rice (Oryza saliva) [25]; [30]) | Plant response rating, Rice (rice (Oryza saliva) [25]; [31]) | Plant response rating, Morningglory [26, 30] | Plant response rating, Morningglory [26, 31] | Plant response rating, Corn (corn (Zea mays) [27]; [30]) | Plant response rating, Corn (corn (Zea mays) [27]; [31])
60: Barnyardgrass plant response rating ([14]; Rate 500 g/ha)
